Measurements from PubChem BioAssay (NCI).
“And” between values parts separate entries of the source, which are not always exact repeats. Equal entries are not always repeated.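 Five concentrations, 48 hours, 96-well plates. Here, GI50 denotes the concentration required for 50% inhibition of growth. TGI: total growth inhibition.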

Assays:
Experiment in all cases: inhibition of tumour cell growth, NCI panel, 48 h
[1] = system: OVCAR-5 ovarian
[2] = system: SNB-78 CNS
[3] = system: HCC-2998 colon
[4] = system: CCRF-CEM leukemia
[5] = system: SF-295 CNS
[6] = system: DMS 273 small cell lung
[7] = system: M14 melanoma
[8] = system: NCI-H226 lung
[9] = system: K-562 leukemia
[10] = system: 786-0 renal
[11] = system: MDA-N

Row | Structure (SMILES) | TGI [1] | TGI [2] [µM] | TGI [3] | TGI [4] | TGI [5] [µM] | TGI [6] [µM] | TGI [7] | TGI [8] [µM] | TGI [9] | TGI [10] | TGI [11] [µM] | GI50 [1] | GI50 [4] | GI50 [9]
1 | C/C(=N/NC(N)=S)c1ccc2ccccc2c1 | 86 µM | > 100 | 34.9 µM | > 100 µM | > 100 | 90.9 | 79.1 µM | > 100 |  |  |  |  |  | 
2 | COc1ccc(-c2cc(=O)c3cc4c(cc3[nH]2)OCO4)c(OC)c1OC |  | > 100 | > 100 µM | > 100 µM | > 100 | > 100 | > 100 µM | > 100 | > 100 µM | > 100 µM |  |  |  | 
3 | COc1cc2c(cc1OC)C1c3ccccc3CCN1CC2 (stereo not given) | > 100 µM |  | > 100 µM | > 100 µM | > 100 |  | > 100 µM | 96.1 | > 100 µM | > 100 µM | > 100 |  |  | 
4 | CN(C)C(CN)CC1=C(CC(CN)N(C)C)CCC1 (stereo not given) | > 100 µM | > 100 | > 100 µM | > 100 µM | > 100 | > 100 |  | > 100 | > 100 µM |  |  |  |  | 
5 | CN(C)c1nc(=NCc2ccncc2)ss1 | 54.4 µM |  | > 100 µM | 49.6 µM | > 100 |  | 36.1 µM | > 100 | 47.7 µM | 31.5 µM | > 31.6 |  |  | 
6 | Cc1ccc(S(=O)(=O)N2CCSCCSCCSCCSCC2)cc1 | > 100 µM |  | > 100 µM | > 100 µM | 39.3 |  | > 100 µM | > 82.2 | > 100 µM | 40.2 µM | > 100 |  |  | 
7 | O=C(O)C1CC(c2ccc(F)cc2)=Nc2ccc(F)cc2S1 (stereo not given) | > 100 µM |  | > 100 µM | > 100 µM | > 100 |  | > 100 µM | > 100 | > 100 µM | > 100 µM | > 100 |  |  | 
8 | O=C1C(c2c(O)[nH]c3ccc(S(=O)(=O)O)cc23)=Nc2ccccc21 | > 100 µM |  | > 100 µM | > 100 µM | > 100 |  | > 100 µM | > 100 | > 100 µM | > 100 µM | > 100 |  |  | 
9 | CCNC(=O)Nc1ccccn1 | > 100 µM |  | > 100 µM | > 100 µM | > 100 |  | > 100 µM | > 100 | > 100 µM | > 100 µM | > 100 |  |  | 
10 | CCC12C[N+]3([O-])CCc4c([nH]c5ccccc45)C(C(=O)OC)(c4cc5c(cc4OC)N(C)C4C(O)(C(=O)OC)C(OC(C)=O)C6(CC)C=CCN7CCC54C76)CC(C3)C1O2 (stereo not given) | 33.3 µM | 4.65 | > 100 µM | 6.87 µM | 1.86 | 12.2 | 17.8 µM |  | 6.28 µM | 7.95 µM |  |  |  | 
11 | COC(=O)c1csnn1 |  |  | > 100 µM | > 100 µM | > 100 | > 100 | > 100 µM | > 100 | > 100 µM | > 100 µM |  |  |  | 
12 | NC(=O)C(=O)N/N=C1/c2ccccc2CC1C1(O)C(=O)Nc2c(Cl)cc(Cl)cc21 (stereo not given) | > 100 µM | > 100 | > 100 µM | > 100 µM | > 100 | > 100 |  | > 100 | > 100 µM |  |  |  |  | 
13 | C=C(C)CCC(=O)[C@](C)(O)[C@H]1[C@H](O)C[C@@]2(C)[C@@H]3CCc4c(cc(OC5OC(CO)C(O)C(O)C5O)c(O)c4C)C3(C)C(=O)C[C@]12C (stereo not given in full) | > 100 µM |  | > 100 µM | > 100 µM | > 100 |  | > 100 µM | > 100 | > 100 µM | > 100 µM | > 100 |  |  | 
14 | COC(=O)NN(C(=O)OC)c1c(-c2ccccc2)nc(SC)n1N | > 100 µM |  | > 100 µM | > 100 µM | > 100 |  | > 100 µM | > 100 | > 100 µM | > 100 µM | > 100 |  |  | 
15 | Nc1c2ccccc2nc2c1ccc1ncccc12 | > 100 µM |  | 39.1 µM | 39 µM | > 100 |  | 43 µM | 43.9 | 88.6 µM | > 100 µM | 74.7 |  |  | 
16 | C=C1C(=O)OC2/C=C(\CO)C(OC(C)=O)CC(O)/C(C)=C/C(OC(=O)C(C)CC)C12 (stereo not given) | > 92.8 µM and 32.2 µM | 42.9 | 52.7 µM and 30.4 µM | 22.7 µM and 69 µM | > 100 | 38 | 31.1 µM and 33.3 µM | 59.6 | 21.4 µM and > 100 µM | 28.8 µM and 52.9 µM | 33.4 | 38.9 µM and 17 µM | 3.76 µM and 11.4 µM | 5.62 µM and 36.9 µM
17 | C=C(Cl)/C(=C\Cl)CCC(Br)C(C)C (stereo not given) | > 100 µM |  | > 100 µM | > 100 µM | > 100 |  | > 100 µM | > 100 | > 100 µM | > 100 µM | > 100 |  |  | 
18 | CCOC(=O)C1=C(C(C)=O)CSC(c2ccccc2)=N1 | > 100 µM | > 100 | > 100 µM | > 100 µM | > 100 | > 100 |  | > 100 | > 100 µM |  |  |  |  | 
19 | COc1cc(/C=C/C(=O)O)ccc1C(=O)O/C=C/c1ccccc1 | > 100 µM | > 100 |  | > 100 µM | > 100 | > 100 |  | > 100 | > 100 µM |  |  |  |  | 
20 | O=C(NC(Cc1c[nH]c2ccccc12)C(=O)O)/C(=C/c1ccccc1O)NC(=O)c1ccccc1 (stereo not given) | > 100 µM |  | > 100 µM | > 100 µM | 37 |  | > 100 µM | 61.5 | > 100 µM | 46.9 µM | > 100 |  |  | 
21 | O=c1cc(/C=C/c2ccc(O)c(O)c2)oc(/C=C/c2ccc(O)c(O)c2)c1 | 44.8 µM |  | 6.92 µM | 7.74 µM | 22.7 |  | 16.5 µM | 28.1 | > 20.7 µM | 17.7 µM | 16.6 |  |  | 
22 | O=c1c2c([nH]c3cc4c(cc13)OCO4)-c1ccccc1CC2 |  |  | > 100 µM | > 100 µM | > 100 | > 100 | > 100 µM | > 100 | > 100 µM | > 100 µM |  |  |  | 
